The results in this text go back to PubChem BioAssay (NCI).

Some test systems named below: T-47D breast; SN12C renal; NCI/ADR-RES ovarian; HOP-92 NSCLC; HT29 colon; SK-MEL-5 melanoma; OVCAR-3 ovarian; SK-MEL-28 melanoma; SF-268 CNS; NCI-H522 lung.
Holding throughout (assay): DTP human tumour cell line panel, 48 h

The GI50 is the concentration that inhibits growth by half. The TGI is the concentration at which net growth stops.

Several values for one entry are separate records, joined by “and”; a condition that tells them apart may be missing. Equal entries are not always repeated.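 Interpolation was linear, between the two tested concentrations surrounding the appropriate level; five concentrations were tested over 48 hours in 96-well plates. GI50 is the concentration that inhibits growth by half. TGI marks complete inhibition of growth.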

On to `COc1ccc2c(c1)CCC1C2CC[C@@]2(C)C1CC[C@@]2(O)CNC(=O)/C=C/c1ccc(O)c(OC)c1` (some centres not stated), for which the GI50 in the assay with T-47D breast was 9.12 µM; in the assay with SN12C renal, 24.3 µM; in the assay with NCI/ADR-RES ovarian it was 12.5 µM; in the assay on HOP-92 NSCLC it was 14.9 µM; in the assay on HT29 colon, 2.8 µM; in the assay with SK-MEL-5 melanoma it was 18.2 µM. The GI50 with OVCAR-3 ovarian was 37.5 µM; in the assay on SK-MEL-28 melanoma, 15.2 µM; in the assay with SF-268 CNS it was 20 µM; in the assay with NCI-H522 lung, 19.9 µM. Besides, the TGI in the assay with T-47D breast was greater than 100 µM; in the assay on SN12C renal it was greater than 100 µM; in the assay with NCI/ADR-RES ovarian it was 83.4 µM; in the assay on HOP-92 NSCLC, 60 µM; with HT29 colon it was 10.8 µM; in the assay with SK-MEL-5 melanoma, 46.6 µM. In addition, the total growth inhibition concentration (TGI) with OVCAR-3 ovarian is greater than 100 µM; in the assay on SK-MEL-28 melanoma it was 84.4 µM; in the assay on SF-268 CNS it was greater than 100 µM; with NCI-H522 lung, greater than 100 µM.

Consider `CC(=O)Oc1ccc(OC(C)=O)c2ccccc12`, for which the GI50 is 1.21 µM in the assay with T-47D breast; 14 µM in the assay with SN12C renal; 3.27 µM in the assay on NCI/ADR-RES ovarian; 1.49 µM with HOP-92 NSCLC; 34.6 µM with HT29 colon; 13.5 µM in the assay with SK-MEL-5 melanoma. Further, the GI50 in the assay with OVCAR-3 ovarian is 3.55 µM; with SK-MEL-28 melanoma, 13.3 µM; in the assay with SF-268 CNS, 10.5 µM; in the assay with NCI-H522 lung, 2.04 µM. The TGI was 3.16 µM with T-47D breast; 27.5 µM in the assay with SN12C renal; 15.2 µM with NCI/ADR-RES ovarian; 3.05 µM in the assay on HOP-92 NSCLC; greater than 100 µM in the assay on HT29 colon; 26.4 µM with SK-MEL-5 melanoma. The TGI was determined as 12.9 µM in the assay with OVCAR-3 ovarian, 26.5 µM with SK-MEL-28 melanoma, 22.3 µM with SF-268 CNS and 5.41 µM in the assay on NCI-H522 lung.

With `CN(C)c1ccc(/C=C2\C[C@H]3[C@@H]4CC=C5C[C@@H](N6CCCC6)CC[C@]5(C)[C@H]4CC[C@]3(C)[C@H]2O)cc1`, the GI50 with T-47D breast is 2.33 µM; with SN12C renal, 2.42 µM; with NCI/ADR-RES ovarian, 4.01 µM; in the assay with HT29 colon, 3.17 µM; in the assay with SK-MEL-5 melanoma, 3.44 µM; with OVCAR-3 ovarian, 2.06 µM. In addition, the GI50 with SF-268 CNS was 2.93 µM. Further, the TGI with T-47D breast was 2.33 µM and 6.03 µM; in the assay on SN12C renal, 3.3 µM and 5.6 µM; in the assay on NCI/ADR-RES ovarian, 6.19 µM and 19.9 µM; in the assay on HOP-92 NSCLC, 4.98 µM; with HT29 colon it was 3.54 µM and 15.1 µM; in the assay on SK-MEL-5 melanoma, 1.62 µM and 12.7 µM. The TGI in the assay on OVCAR-3 ovarian is 2.7 µM and 4.86 µM; in the assay with SK-MEL-28 melanoma, 1.84 µM; in the assay on SF-268 CNS, 2.4 µM and 9.84 µM; in the assay with NCI-H522 lung, 2.25 µM.

Take `CC(=O)OCC1OC(OC2C(COC(C)=O)OC(OCCC[S-])C(OC(C)=O)C2OC(C)=O)C(OC(C)=O)C(OC(C)=O)C1OC(C)=O.[Au+].c1ccc(CN2[CH-]N(Cc3ccccc3)C(c3ccccc3)=C2c2ccccc2)cc1` (configuration not stated): the GI50 in the assay with T-47D breast is 3.28 µM; with SN12C renal it was 3.32 µM; with NCI/ADR-RES ovarian it was 19.5 µM; in the assay on HOP-92 NSCLC it was 2.37 µM; with HT29 colon, 3.23 µM; in the assay on SK-MEL-5 melanoma, 1.97 µM. Also, the GI50 is 2.62 µM in the assay with OVCAR-3 ovarian, 3.53 µM in the assay on SK-MEL-28 melanoma, 5.2 µM with SF-268 CNS and 1.72 µM in the assay with NCI-H522 lung. Further, the TGI in the assay with T-47D breast is 18.5 µM; in the assay with SN12C renal it was 15 µM; in the assay with NCI/ADR-RES ovarian it was greater than 100 µM; with HOP-92 NSCLC it was 6.24 µM; with HT29 colon it was 13.6 µM; in the assay with SK-MEL-5 melanoma, 4.41 µM. The TGI in the assay on OVCAR-3 ovarian is 8.48 µM; in the assay with SK-MEL-28 melanoma, 18.5 µM; in the assay on SF-268 CNS, 24.9 µM; with NCI-H522 lung, 4.55 µM.

For the compound `Cc1cccc(C(C)(C)C)c1NC(=O)/C(Cc1nc2ccc([N+](=O)[O-])cc2[nH]c1=O)=N/NC(=O)C[N+](C)(C)C`, the TGI in the assay on T-47D breast, in the assay with SN12C renal, in the assay with NCI/ADR-RES ovarian, with HOP-92 NSCLC, in the assay with HT29 colon and in the assay with SK-MEL-5 melanoma was greater than 100 µM each time. The TGI with OVCAR-3 ovarian, in the assay on SK-MEL-28 melanoma, with SF-268 CNS and with NCI-H522 lung was greater than 100 µM in each case.

As to `O=C1c2ccccc2C(=O)c2c1ccc(C(Br)Br)c2[N+](=O)[O-]`, the GI50 in the assay with T-47D breast was 1.63 µM; in the assay with SN12C renal, 1.83 µM; with NCI/ADR-RES ovarian, 2.01 µM; in the assay on HOP-92 NSCLC, 1.7 µM; in the assay on HT29 colon, 1.72 µM; in the assay with SK-MEL-5 melanoma, 1.77 µM. For the same compound, the GI50 in the assay with OVCAR-3 ovarian was 1.63 µM; in the assay on SK-MEL-28 melanoma, 2.63 µM; in the assay with SF-268 CNS, 1.57 µM; in the assay with NCI-H522 lung, 1.84 µM. In addition, the TGI amounted to 3.89 µM with T-47D breast; 3.86 µM with SN12C renal; 6.56 µM with NCI/ADR-RES ovarian; 3.3 µM in the assay on HOP-92 NSCLC; 3.24 µM in the assay on HT29 colon; 3.73 µM in the assay with SK-MEL-5 melanoma. The TGI stood at 3.04 µM in the assay on OVCAR-3 ovarian, 6.56 µM with SK-MEL-28 melanoma, 3.17 µM in the assay with SF-268 CNS and 3.46 µM with NCI-H522 lung.

In the case of `COC(=O)C(/C(=N/NC(=O)c1ccncc1)C(=O)Nc1ccccc1OC)c1nc2ccc(Cl)cc2[nH]c1=O` (configuration not stated), the TGI in the assay on T-47D breast, in the assay on SN12C renal, in the assay with NCI/ADR-RES ovarian, in the assay with HOP-92 NSCLC, in the assay on HT29 colon and with SK-MEL-5 melanoma was greater than 100 µM each time. Further, the TGI with OVCAR-3 ovarian, in the assay on SK-MEL-28 melanoma, in the assay with SF-268 CNS and in the assay on NCI-H522 lung was greater than 100 µM in each case.

With `O=C(O)c1c(O)c2cc(Br)ccc2oc1=O`, the TGI with T-47D breast, with SN12C renal, with NCI/ADR-RES ovarian, in the assay with HOP-92 NSCLC, in the assay on HT29 colon and with SK-MEL-5 melanoma was greater than 100 µM each time. Moreover, the TGI with OVCAR-3 ovarian, in the assay with SK-MEL-28 melanoma, in the assay on SF-268 CNS and with NCI-H522 lung was greater than 100 µM throughout.

For `Cc1ccc(C(=O)N(C(C)C)C(C)C)cc1N=NN(C)C`, the TGI in the assay with T-47D breast, with SN12C renal, with NCI/ADR-RES ovarian, with HOP-92 NSCLC, in the assay on HT29 colon and with SK-MEL-5 melanoma was greater than 100 µM each time. The TGI in the assay on OVCAR-3 ovarian is greater than 100 µM; in the assay with SK-MEL-28 melanoma, greater than 100 µM; in the assay on SF-268 CNS, 98 µM; in the assay with NCI-H522 lung, 43.2 µM.
